Source: paper PMC9967275, “Screening the Pathogen Box to Discover and Characterize New Cruzain and TbrCatL Inhibitors” (Pathogens, 2023)
Where two headings read alike, the source gives them in different places.

Assays:
[1] = target: cruzain (Trypanosoma cruzi, UniProt P25779); assay: biochemical;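 for Cruzain 0’ Inhibition: at 5 µM compound concentration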;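 for Cruzain 10’ Inhibition: at 5 µM compound concentration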;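 for Cruzain Inhibition 0’: at 5 µM compound concentration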;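 for Cruzain Inhibition 10’: at 5 µM compound concentration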
Chain of cruzain (P25779 123-337 limits assumed): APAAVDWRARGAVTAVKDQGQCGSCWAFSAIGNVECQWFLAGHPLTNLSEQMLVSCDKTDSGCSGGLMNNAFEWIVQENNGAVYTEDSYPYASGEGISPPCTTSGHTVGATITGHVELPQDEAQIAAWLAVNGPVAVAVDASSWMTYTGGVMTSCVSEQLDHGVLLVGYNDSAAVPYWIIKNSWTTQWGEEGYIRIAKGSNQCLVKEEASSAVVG
Procedure, shortened: (§1)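 Recombinant enzymes assayed by Z-Phe-Arg-AMC cleavage at 25 °C, fluorescence 340/440 nm over 5–7 min, with 10 min or no enzyme–compound preincubation.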

[2] = target: T1, TbrCatL (Trypanosoma brucei rhodesiense, UniProt Q95PM0); assay: TbrCatL enzymatic inhibition assay (cleavage of fluorogenic substrate Z-FR-AMC); type: biochemical; conditions: for TbrCatL 0’ Inhibition / TbrCatL 10’ Inhibition: sheet "Screening results";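 for TbrCatL 0’ Inhibition: at 5 µM compound concentration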;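 for TbrCatL 10’ Inhibition: at 5 µM compound concentration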;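 for TbrCatL Inhibition 0’: at 5 µM compound concentration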;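 for TbrCatL Inhibition 10’: at 5 µM compound concentration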
T1 construct: Conor Caffrey (University of California San Diego)
T1 sequence (Q95PM0 entry or part of it): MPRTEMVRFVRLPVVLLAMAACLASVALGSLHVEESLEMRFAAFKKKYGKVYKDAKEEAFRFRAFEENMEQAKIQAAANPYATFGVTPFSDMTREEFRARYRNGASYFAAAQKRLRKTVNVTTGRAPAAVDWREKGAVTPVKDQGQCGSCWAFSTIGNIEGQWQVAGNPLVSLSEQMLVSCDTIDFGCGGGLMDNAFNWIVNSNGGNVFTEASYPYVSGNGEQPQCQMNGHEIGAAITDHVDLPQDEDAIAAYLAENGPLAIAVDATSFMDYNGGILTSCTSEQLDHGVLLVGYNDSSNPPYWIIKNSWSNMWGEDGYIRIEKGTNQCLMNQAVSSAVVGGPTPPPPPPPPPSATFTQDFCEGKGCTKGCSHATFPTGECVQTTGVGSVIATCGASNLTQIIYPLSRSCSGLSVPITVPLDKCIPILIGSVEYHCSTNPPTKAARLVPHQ
Procedure, shortened: as §1

[3] = 0’ (no pre-incubation), sheet Screening results
[4] = 10’ (pre-incubation), sheet Screening results
[5] = 0’ (pre-incubation time), sheet "Screening results"
[6] = 10’ (pre-incubation time), sheet "Screening results"
[7] = read-out: Cruzain 0’ Inhibition, 0’ (pre-incubation time), sheet "Screening results"
[8] = read-out: Cruzain 10’ Inhibition, 10’ (pre-incubation time), sheet "Screening results"
[9] = read-out: Inhibition at 5 µM (Mean ± SEM %) Cruzain 0′, 5 µM, no pre-incubation, initial screening
[10] = read-out: Inhibition at 5 µM (Mean ± SEM %) Cruzain 10′ inc, 5 µM, 10′ pre-incubation, initial screening
[11] = read-out: Inhibition of cruzain or TbrCatL (either enzyme) in the initial screening, 5 µM, either cruzain or TbrCatL, with or without pre-incubation
[12] = read-out: Inhibition at 5 µM (Mean ± SEM %) TbrCatL 0′
[13] = read-out: Inhibition at 5 µM (Mean ± SEM %) TbrCatL 10′ inc
[14] = read-out: TbrCatL 0’ Inhibition
[15] = read-out: TbrCatL 10’ Inhibition
[16] = 0’ (pre-incubation time), Pathogen Box screening results
[17] = 10’ (pre-incubation time), Pathogen Box screening results

Row | Structure (SMILES) | Cruzain 0’ Inhibition [1, 5] [%] | Cruzain 10’ Inhibition [1, 6] [%] | TbrCatL 0’ Inhibition ([2]; 0’ (pre-incubation time)) [%] | TbrCatL 10’ Inhibition ([2]; 10’ (pre-incubation time)) [%] | other results
1 | CS(=O)(=O)Cc1nc2ccccc2oc1=O [MMV553002] | – | – | – | – | Cruzain Inhibition 0’ [1, 3]: 18%; Cruzain Inhibition 10’ [1, 4]: 12%; TbrCatL Inhibition 0’ [2, 3]: 19%; TbrCatL Inhibition 10’ [2, 4]: 19%
2 | c1ccc(-c2cc(N3CCCCC3)c3ccccc3n2)nc1 [MMV560185] | – | – | – | – | Cruzain Inhibition 0’ [1, 3]: 5.5%; Cruzain Inhibition 10’ [1, 4]: -4.5%; TbrCatL Inhibition 0’ [2, 3]: 4.5%; TbrCatL Inhibition 10’ [2, 4]: -2.4%
3 | CCN(CC)S(=O)(=O)c1ccc(C(=O)Nc2cc(C)nn2-c2nc(C)c(C)c(=O)[nH]2)cc1 [MMV595321] | – | – | – | – | Cruzain Inhibition 0’ [1, 3]: -13%; Cruzain Inhibition 10’ [1, 4]: -3.8%; TbrCatL Inhibition 0’ [2, 3]: -23%; TbrCatL Inhibition 10’ [2, 4]: -29%
4 | CCC(Sc1nc2ccccc2o1)C(=O)Nc1nnc(C)s1 (stereo not drawn) [MMV611037] | 0.2 | 4 | 6 | 5 | –
5 | O=C(NCCN1CCCC1)c1cc(NCCN2CCOCC2)nc2ccc(Cl)cc12 [MMV634140] | – | – | – | – | inhibition at 5 µM [1, 7]: 24%; inhibition at 5 µM [1, 8]: 31%; inhibition at 5 µM [1, 9]: 24 ± 1%; inhibition at 5 µM [1, 10]: 31 ± 3%; inhibition at 5 µM [1, 11]: ≥ 40%; inhibition at 5 µM [2, 12]: 11 ± 1%; inhibition at 5 µM [2, 13]: 42 ± 3%; inhibition at 5 µM [2, 14]: 11%; inhibition at 5 µM [2, 15]: 42%
6 | Cc1ccc(C(=O)Nc2ccc(S(=O)(=O)O)c3cc(S(=O)(=O)O)cc(S(=O)(=O)O)c23)cc1NC(=O)c1cccc(NC(=O)Nc2cccc(C(=O)Nc3cc(C(=O)Nc4ccc(S(=O)(=O)O)c5cc(S(=O)(=O)O)cc(S(=O)(=O)O)c45)ccc3C)c2)c1 [MMV637953] | – | – | – | – | Cruzain Inhibition 0’ [1, 3]: 32%; Cruzain Inhibition 10’ [1, 4]: 21%; TbrCatL Inhibition 0’ [2, 3]: -4.4%; TbrCatL Inhibition 10’ [2, 4]: -0.2%
7 | O=C(Nc1ccc2c(c1)B(O)OC2)c1ccccc1C(F)(F)F [MMV652003] | – | – | – | – | Cruzain Inhibition 0’ [1, 3]: 22%; Cruzain Inhibition 10’ [1, 4]: 16%; TbrCatL Inhibition 0’ [2, 3]: -5.6%; TbrCatL Inhibition 10’ [2, 4]: -1.7%
8 | Cc1nc(-c2ccccn2)nc(N(C)CCc2ccccc2)c1Cl [MMV658988] | – | – | – | – | Cruzain Inhibition 0’ [1, 16]: -3%; Cruzain Inhibition 10’ [1, 17]: 14%; TbrCatL Inhibition 0’ [2, 16]: -5.5%; TbrCatL Inhibition 10’ [2, 17]: 10%
9 | Cc1nc(-c2ccccn2)nc(NCCc2ccc(S(C)(=O)=O)cc2)c1Cl [MMV658993] | -6.4 | 9 | -11 | -12 | –
10 | Cc1nc(-c2ccccn2)nc(N2CCC(Cc3ccccc3)C2)c1Cl (stereo not drawn) [MMV659004] | -2 | 12 | -4.5 | -2.3 | –
11 | FC(F)(F)c1cc(NCCc2ccccc2)nc(-c2ccccn2)n1 [MMV659010] | -2.5 | 6 | 8 | 9 | –
12 | Brc1cncc(-c2cc(NCCCn3ccnc3)nc(-c3ccccc3)n2)c1 [MMV661713] | – | – | – | – | Cruzain Inhibition 0’ [1, 3]: 20%; Cruzain Inhibition 10’ [1, 4]: 13%; TbrCatL Inhibition 0’ [2, 3]: 20%; TbrCatL Inhibition 10’ [2, 4]: 10%
13 | Clc1cccc(C(c2ccc(CN3CCNCC3)cc2)n2ccnc2)c1 (stereo not drawn) [MMV663250] | -0.3 | 10 | -13 | -1.1 | –
14 | O=C(NCCN1CCCC1)c1cc(NCCCCN2CCC(F)(F)CC2)nc2ccc(Cl)cc12 [MMV667494] | – | – | – | – | inhibition at 5 µM [1, 7]: 39%; inhibition at 5 µM [1, 8]: 53%; inhibition at 5 µM [1, 9]: 40 ± 1%; inhibition at 5 µM [1, 10]: 53 ± 1%; inhibition at 100 µM ([1]; read-out: Inhibition at 100 µM (Mean ± SEM %) Cruzain 0′, 100 µM, no pre-incubation, solid samples): 0%; inhibition at 100 µM ([1]; read-out: Inhibition at 100 µM (Mean ± SEM %) Cruzain 10′ inc, 100 µM, 10′ pre-incubation, solid samples): 70 ± 3%; inhibition at 5 µM [1, 11]: ≥ 60%; inhibition at 5 µM [2, 12]: 31 ± 5%; inhibition at 5 µM [2, 13]: 73 ± 1%; inhibition at 100 µM ([2]; read-out: Inhibition at 100 µM (Mean ± SEM %) TbrCatL 0′): 0%; inhibition at 100 µM ([2]; read-out: Inhibition at 100 µM (Mean ± SEM %) TbrCatL 10′ inc): 11 ± 8%; inhibition at 5 µM [2, 14]: 32%; inhibition at 5 µM [2, 15]: 73%
15 | Nc1ncc(-c2ccc(C(F)(F)F)nc2)cc1-c1ccc(C(F)(F)F)nc1 [MMV668727] | – | – | – | – | Cruzain Inhibition 0’ [1, 3]: 11%; Cruzain Inhibition 10’ [1, 4]: -3%; TbrCatL Inhibition 0’ [2, 3]: 6.6%; TbrCatL Inhibition 10’ [2, 4]: -4.6%
16 | Cc1[nH]c2cc(F)cc(F)c2c(=O)c1-c1ccc(Oc2ccc(OC(F)(F)F)cc2)cc1 [MMV671636] | 8 | 17 | 10 | 6.6 | –
17 | COc1ccc(OC)c(NCc2ccc3nc(N)nc(N)c3c2Cl)c1 [MMV675968] | 6.6 | 26 | 20 | 22 | –
18 | CC(C)(C)c1ccc(N[C@@H]2CCCC[C@H]2NC(=O)c2ccco2)cc1 [MMV675969] | -8 | -5 | -4.6 | -6 | –
19 | COc1ccc(-c2nn(C(C)C)c3ncnc(N)c23)cc1OC [MMV675993] | -7 | -1.8 | -7 | -5.6 | –

Row | Structure (SMILES) | Cruzain 0’ Inhibition [1, 5] [%] | Cruzain 10’ Inhibition [1, 6] [%] | TbrCatL 0’ Inhibition ([2]; 0’ (pre-incubation time)) [%] | TbrCatL 10’ Inhibition ([2]; 10’ (pre-incubation time)) [%] | other results
20 | Clc1ccc(-n2cc(COc3ccnc4ccccc34)nn2)cc1 [MMV675994] | 5 | 14 | -1.8 | 11 | –
21 | COc1ccc(N(CCc2cccc(C)n2)C(C)=O)cc1 [MMV675995] | 2.8 | 1.9 | -3 | 19 | –
22 | COc1ccc(N(CCc2cccc(C)n2)C(=O)C2CCCCC2)cc1 [MMV675996] | -3 | -2.2 | -13 | -10 | –
23 | N#CCN(CCCCN1CCN(c2ccc(F)cc2)CC1)C(=O)OCc1ccccc1 [MMV675997] | – | – | – | – | Cruzain Inhibition 0’ [1, 3]: 1.2%; Cruzain Inhibition 10’ [1, 4]: 3.2%; TbrCatL Inhibition 0’ [2, 3]: 1.6%; TbrCatL Inhibition 10’ [2, 4]: 5%
24 | COc1ccc(C(=N)N)cc1-c1cn(-c2ccc(C(=N)N)cc2)nn1 [MMV675998] | 6 | 26 | 2 | 34 | –
25 | O=C(Nc1c(O)cccc1-c1nc2c(C(=O)O)cccc2o1)c1cc(-c2ccccc2)on1 [MMV676008] | -3.3 | 8 | 2.6 | -3.7 | –
26 | Clc1ccc(Cl)c(CO[C@H]2CCCC[C@@H]2n2ccnc2)c1 [MMV676048] | 2.8 | 5.7 | 0.8 | -3.8 | –
27 | CS(=O)(=O)N1CCC(Cn2nc(Cc3cccc4ccccc34)c3c(N)ncnc32)CC1 [MMV676050] | 0.2 | 8 | 0.1 | 3 | –
28 | COc1cc(NC(=O)Cc2nn(C)c(=O)c3ccccc23)ccc1Cl [MMV676053] | 0 | 1.7 | 1.2 | 1.5 | –
29 | CC(C)(C)OC(=O)N1CCN(c2cc(-c3ccc(Oc4ccccc4)cc3)n[nH]2)CC1 [MMV676057] | -1.5 | -3.4 | -2.3 | -12 | –
30 | CCCCc1ccc(NC(=O)Nc2ccc(O[C@H]3CCCC[C@@H]3N(C)c3ccccc3)c(F)c2)cc1 [MMV676063] | -13 | -3.3 | -17 | -15 | –
31 | CC(=O)N(CCN(C(=O)c1ccc(F)cc1)c1ccccc1)c1ccccc1 [MMV676064] | -6 | 3 | -5 | -7 | –
32 | Clc1cccc(CO[C@H]2CCc3ccccc3[C@@H]2n2ccnn2)c1 [MMV676159] | -3 | -1.8 | -13 | -6 | –
33 | c1ccc(Oc2ccc(-c3cc(CN4CCOCC4)[nH]n3)cc2)cc1 [MMV676161] | -1.3 | 1.7 | -3 | -2.5 | –
34 | O=C(Nc1ccccc1-c1nc2c(C(=O)O)cccc2o1)c1ccccc1 [MMV676162] | 8 | 9 | 2.6 | 6 | –
35 | Nc1ncnc2c1c(Cc1cccc3ccccc13)nn2CC1CCNCC1 [MMV676182] | -4.4 | 4.5 | 1.4 | 3.4 | –
36 | COC(=O)c1cccc2oc(-c3cccc(OC)c3NC(=O)c3cc(-c4ccccc4)on3)nc12 [MMV676186] | -3.5 | 5.3 | -3.7 | -5 | –
37 | CC(C)C(Oc1cccc2ccccc12)C(=O)O (stereo not drawn) [MMV676191] | 2.8 | 1.5 | -3 | 2 | –
